What was measured:
[1] = test system: patients with advanced senile dementia; settings: daily Trp administration (24 mg/kg); cited from earlier work
[2] = test system: patients with mild to moderate Alzheimer's disease (AD); test: Phase IV double-blind randomized placebo-controlled clinical trial of L-tryptophan (Trp); assay type: in vivo, human
Method: A phase IV clinical trial of L-tryptophan (Trp) was carried out to evaluate the amino acid's effect on cognitive abilities in patients with mild to moderate Alzheimer's disease (AD). An earlier trial has been performed which studied Trp administration in patients suffering from AD [Bentham, P W. International Clinical Psychopharmacology, 1990, 5: 261-72]. The present trial expects the possible binding of Trp to the HHQK region of Aβ [D Giulian et al. (1998). Journal of Biological Chemistry 273:29719-26] and subsequent disruption of Aβ plaque formation, whereas the earlier trial was based on neurotransmitter replacement therapy. By administering Trp, levels of its metabolite […], better known as serotonin, were expected to increase, thereby countering deficits of the neurotransmitter experienced by those suffering from AD [Siegel, G J; Agranoff, B W; Albers, R W; Molinoff, P B, Basic Neurochemistry. Fifth ed. 1994, New York: Raven Press, 1054 pp]. Also providing motivation for the trial may have been earlier accounts that Trp was seen to benefit elderly patients with mental disorders [Shaw, D M; Tidmarsh, S F; Karajgi, B M; Sweeney, E A; Williams, S; Elameer, M; Twining, C. British Journal of Psychiatry, 1981, 139: 580-2, Lehmann, J; Persson, S; Walinder, J; Wallin, L. Acta Psychiatrica Scandinavica, 1981, 64: 123-31].
Twelve patients were enrolled in the current clinical trial. Patients were administered 1 g Trp (n=8) or placebo (n=4) twice a day for six months, and their cognitive abilities were assessed, using standardized tests, at baseline, three months and six months. All enrollment and testing was carried out at the Kingston General Hospital, Kingston, Ontario, Canada, under the supervision of the principal investigator, D. F. Weaver, M.D., Ph.D (the protocol is attached as Appendix A). The primary endpoint of the double-blind trial was to determine whether patients receiving Trp outperformed the controls, either by experiencing an improvement in cognition or a reduction in deterioration in cognitive abilities relative to the placebo group.
Eligible participants were those who met the clinical criteria of probable Alzheimer's disease as described in the Diagnostic and Statistical Manual of Mental Disorders, fourth edition (DSM-IV) [Anonymous, Diagnostic and Statistical Manual of Mental Disorders, 4th Edition (DSM-IV). 1994, Washington, D.C.: American Psychiatric Association] and in the National Institute of Neurologic and Communicative Disorders and Stroke and the Alzheimer's Disease Related Disorders Association (NINCDS-ADRDA) [McKhann, G; Drachman, D; Folstein, M; Katzman, R; Price, D; Stadlan, E M. Neurology, 1984, 34: 939-44]. Inclusion criteria also included: mild to moderate severity of dementia, as reflected by a Mini-Mental State Examination (MMSE) [Folstein, M F; Folstein, S E; McHugh, P R. J Psychiatr Res, 1975, 12: 189-98] score of 14 to 26; minimum one-year duration of symptoms; minimum age of 50 years; living at home or in an institution provided they had caregivers capable of attending each clinic visit and ensuring the administration of medication; able to perform the psychometric tests required; reasonably good nutritional status; vital signs (blood pressure and heart rate in sitting and standing positions), urinalysis, physical examination, and neurological evaluation must yield results within normal limits or determined as not clinically significant by the study physician for the patient's age and sex.
This study was a 6-month, double-blind randomized trial in which eligible participants were randomly assigned to receive either Trp (1000 mg, twice daily) or an identical-appearing placebo. Recruiters were unaware of the assignment. […]

patients with dementia = settings: one month, once daily dosing, ratings of behaviour and functional abilities; cited from earlier work
[3] = test system: patients suffering from AD; settings: ten patients, three months; cited from earlier work
[4] = Trp 1 g twice a day (n = 8), 6 months, negative change indicates improvement
[5] = Trp 1 g twice a day (n = 8), 6 months, positive change indicates improvement
[6] = Trp (n = 8) vs. placebo (n = 4), 3 months
[7] = Trp (n = 8) vs. placebo (n = 4), 6 months

N[C@@H](Cc1c[nH]c2ccccc12)C(=O)O [Trp, L-tryptophan]
patients with “unequivocal improvement in blind global assessment” [1]: six of 29
ADAS-Cog, mean (SE) change from baseline after 3 months ([2]; Trp 1 g twice a day (n = 8), 3 months, negative change indicates improvement): −0.8 (0.9)
MMSE, mean (SE) change from baseline after 3 months ([2]; Trp 1 g twice a day (n = 8), 3 months, positive change indicates improvement): 0.8 (0.4)
ADAS-Cog, mean (SE) change from baseline after 6 months [2, 4]: −2.8 (1.4)
FAQ, mean (SE) change from baseline after 6 months [2, 4]: 3.2 (2.0)
NPI, mean (SE) change from baseline after 6 months [2, 4]: 3 (3)
Clock-drawing, mean (SE) change from baseline after 6 months [2, 5]: 1.1 (0.4)
DAD, mean (SE) change from baseline after 6 months [2, 5]: 1.5 (1.8)
MMSE, mean (SE) change from baseline after 6 months [2, 5]: 1.8 (0.5)
ADCS-CGIC, mean (SE) score at 6 months ([2]; Trp 1 g twice a day (n = 8), score at 6 months, not change from baseline, lower score indicates improvement): 3.6 (0.3)
adverse events reported by patients ([2]; Trp 1 g twice a day, 6 months): No adverse events
ADAS-Cog, treatment difference (Trp vs. placebo) after 3 months [2, 6]: 1.3
MMSE, treatment difference (Trp vs. placebo) after 3 months [2, 6]: 2.0
ADAS-Cog, treatment difference (Trp vs. placebo) after 6 months [2, 7]: −6.3
ADCS-CGIC, treatment difference (Trp vs. placebo) at 6 months [2, 7]: 2.9
Clock-drawing, treatment difference (Trp vs. placebo) after 6 months [2, 7]: 2.9
DAD, treatment difference (Trp vs. placebo) after 6 months [2, 7]: 12.8
FAQ, treatment difference (Trp vs. placebo) after 6 months [2, 7]: −2.0
MMSE, treatment difference (Trp vs. placebo) after 6 months [2, 7]: 5.0
NPI, treatment difference (Trp vs. placebo) after 6 months [2, 7]: −19
patients depressed (Cornell Depression Index score of >5) after 6 months of treatment ([2]; Trp group (two patients), 6 months): 25%
sleep problems (score of >4 on the Pittsburgh Sleep Quality) ([2]; at baseline or at 6 months): No sleep problems
benefit in patients with dementia (patients with dementia): of no benefit
correlation between the increase in Trp plasma levels and the increase in cognitive test scores [3]: statistically significant correlation

From patent publication US20070015813A1, “Treatment of protein folding disorders” (QUEEN'S UNIVERSITY AT KINGSTON, priority 2005, published 2007)
